# Test results from the supplement of paper PMC11451515.
# Test system: NOMO1
# Test: cell viability relative to DMSO control; higher = less cytotoxic
# Conditions: 48 h
# Method in brief: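 Viability, reported as a per-plate percentage of DMSO wells with cell-free wells as background, came from CellTiter-Glo One luminescence. Reading took place after 48 h at 37°C. Before that, NOMO1 or SEM (500 cells/well) or P12-Ichikawa (1000 cells/well) leukemia cells, adapted for at least four passages in each medium, were seeded in 1536-well plates (5 μl) and pin-dosed with library compounds in DMSO, 47 μM to 0.79 nM over 11 threefold points.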
# [1] = HPLM + 10% dialyzed FBS, 0.000781 µM
# [2] = HPLM + 10% dialyzed FBS, 0.00234 µM
# [3] = HPLM + 10% dialyzed FBS, 0.00702 µM
# [4] = HPLM + 10% dialyzed FBS, 0.0211 µM
# [5] = HPLM + 10% dialyzed FBS, 0.0632 µM
# [6] = HPLM + 10% dialyzed FBS, 0.19 µM
# [7] = HPLM + 10% dialyzed FBS, 0.569 µM
# [8] = HPLM + 10% dialyzed FBS, 1.71 µM
# [9] = HPLM + 10% dialyzed FBS, 5.12 µM
# [10] = HPLM + 10% dialyzed FBS, 15.4 µM
# [11] = HPLM + 10% dialyzed FBS, 46.1 µM
# [12] = RPMI 5 mM glucose + 10% FBS, 0.000781 µM
# [13] = RPMI 5 mM glucose + 10% FBS, 0.00234 µM
# [14] = RPMI 5 mM glucose + 10% FBS, 0.00702 µM
# [15] = RPMI 5 mM glucose + 10% FBS, 0.0211 µM
# [16] = RPMI 5 mM glucose + 10% FBS, 0.0632 µM
# [17] = RPMI 5 mM glucose + 10% FBS, 0.19 µM
# [18] = RPMI 5 mM glucose + 10% FBS, 0.569 µM
# [19] = RPMI 5 mM glucose + 10% FBS, 1.71 µM
# [20] = RPMI 5 mM glucose + 10% FBS, 5.12 µM
# [21] = RPMI 5 mM glucose + 10% FBS, 15.4 µM
# [22] = RPMI 5 mM glucose + 10% FBS, 46.1 µM
# [23] = RPMI 5 mM glucose + 10% dialyzed FBS, 0.000781 µM
# [24] = RPMI 5 mM glucose + 10% dialyzed FBS, 0.00234 µM
# [25] = RPMI 5 mM glucose + 10% dialyzed FBS, 0.00702 µM
# [26] = RPMI 5 mM glucose + 10% dialyzed FBS, 0.0211 µM
# [27] = RPMI 5 mM glucose + 10% dialyzed FBS, 0.0632 µM
# [28] = RPMI 5 mM glucose + 10% dialyzed FBS, 0.19 µM
# [29] = RPMI 5 mM glucose + 10% dialyzed FBS, 0.569 µM
# [30] = RPMI 5 mM glucose + 10% dialyzed FBS, 1.71 µM
# [31] = RPMI 5 mM glucose + 10% dialyzed FBS, 5.12 µM
# [32] = RPMI 5 mM glucose + 10% dialyzed FBS, 15.4 µM
# [33] = RPMI 5 mM glucose + 10% dialyzed FBS, 46.1 µM
SMILES,cell viability [1] [%],cell viability [2] [%],cell viability [3] [%],cell viability [4] [%],cell viability [5] [%],cell viability [6] [%],cell viability [7] [%],cell viability [8] [%],cell viability [9] [%],cell viability [10] [%],cell viability [11] [%],cell viability [12] [%],cell viability [13] [%],cell viability [14] [%],cell viability [15] [%],cell viability [16] [%],cell viability [17] [%],cell viability [18] [%],cell viability [19] [%],cell viability [20] [%],cell viability [21] [%],cell viability [22] [%],cell viability [23] [%],cell viability [24] [%],cell viability [25] [%],cell viability [26] [%],cell viability [27] [%],cell viability [28] [%],cell viability [29] [%],cell viability [30] [%],cell viability [31] [%],cell viability [32] [%],cell viability [33] [%]
C/C(=C\c1csc(C)n1)[C@@H]1C[C@@H]2O[C@]2(C)CCC[C@H](C)[C@H](O)[C@@H](C)C(=O)C(C)(C)[C@@H](O)CC(=O)O1,22.6,28.6,32,27.8,29.6,27.8,29.6,35,25.2,27.6,31.3,14.1,18.3,20.6,18.3,20.3,15.9,16.8,19.2,15.3,14.5,14.9,18.1,22.2,22.9,39.2,23.9,24.5,21.8,21.4,21.9,25,20
Oc1cc2c(cc1O)C1c3ccc(O)c(O)c3OCC1(O)C2 (stereo not drawn),95.1,89.1,104,93.5,111,107,102,115,111,105,110,102,92.3,101,102,91.9,96.6,97.7,94.9,106,92.2,93.9,77.6,87.2,104,97.2,99,106,107,110,103,103,102
Cn1cc(-c2cnn3c(N)c(Br)c([C@@H]4CCCNC4)nc23)cn1,99.8,107,111,102,101,99,93.2,47.7,21.8,15.8,27.6,99.7,88,88.8,85.2,89.7,89.3,84.2,60.3,16.4,11.3,12.8,78.7,93.1,84.1,98.2,95.3,92.5,81.2,33.4,20.1,16.5,19
O=P1(N(CCCl)CCCl)NCCCO1 (stereo not drawn),134,106,108,115,101,112,122,120,97.6,91,75.7,108,98.4,110,99.7,102,103,97.8,87.3,91.4,50.5,47.5,85.1,110,99.7,119,119,112,103,110,84.9,54,50.7
CCCCOc1ccc(CC(=O)NO)cc1,122,124,114,121,101,104,104,109,107,95.4,85.3,101,110,122,99.3,97.4,118,108,108,96.1,97.2,81.2,107,123,116,126,109,111,109,103,95,94.7,86.9
COC(=O)Nc1ccc(-c2nc(N3CCOCC3)c3cnn(C4CCN(Cc5cccnc5)CC4)c3n2)cc1,117,117,132,108,88.6,76.4,70.3,70.6,26.3,19.4,9.7,106,117,119,105,110,92.4,88.7,82.6,45.4,32.4,17.6,,,,,,,,,,,
O=C(C1CC1)N1CC[C@@H](Cn2c(-c3ccc(-c4ccc5occc5c4)cc3)nc3cnccc32)C1,93.7,128,117,112,122,135,121,134,117,123,82.6,117,101,104,102,111,104,106,115,119,109,113,101,115,107,129,120,112,119,114,109,110,100
O=C1CCC[C@@H]2[C@H]3CCC[N+]4([O-])CCC[C@@H](CN12)[C@@H]34 (stereo partly drawn),75.3,92.3,98.9,87.6,105,98.2,88.4,94.5,56.9,10.1,5.34,83.5,86.8,86.1,92.7,98.7,92,107,94.1,64.3,22,6.85,79.1,88.7,93.2,97.4,97.8,98.7,94.4,88.9,51.3,29.7,5.35
